Data as given in ChEMBL document CHEMBL1137749, “Antifungal unsaturated cyclic Mannich ketones and amino alcohols: study of mechanism of action” (2009).
≈ marks a conversion by molar mass, not a printed value. Calls of active or inactive are those of the source. The calls are words filed in the database; no cut-off is given here.

Key:
Candida albicans [1] = assay: Antifungal activity against Candida albicans ATCC 90028 after 48 hrs by macro tube dilution method; type: functional; conditions: ATCC 90028, 48 h
Nakaseomyces glabratus = assay: Antifungal activity against Candida glabrata ATCC 3916 after 48 hrs by macro tube dilution method; type: functional; conditions: ATCC 3916, 48 h
Pichia kudriavzevii = assay: Antifungal activity against Candida krusei ATCC 30068 after 48 hrs by macro tube dilution method; type: functional; conditions: ATCC 30068, 48 h
Candida parapsilosis = assay: Antifungal activity against Candida parapsilosis ATCC 22019 after 48 hrs by macro tube dilution method; type: functional; conditions: Lodderomyces parapsilosis, ATCC 22019, 48 h
Saccharomyces cerevisiae = assay: Antifungal activity against Saccharomyces cerevisiae after 48 hrs by macro tube dilution method; type: functional
Aspergillus sp. = assay: Antifungal activity against Aspergillus sp. after 48 hrs by macro tube dilution method; type: functional
Candida albicans [2] = assay: Inhibition of chitin synthase in Candida albicans ATCC 90028 at 1.5 times MIC by liquid scintillation analyzer relative to nikkomycin

| SMILES | MIC (Candida albicans [1]) [µg/mL] | MIC (Nakaseomyces glabratus) [µg/mL] | MIC (Pichia kudriavzevii) [µg/mL] | MIC (Candida parapsilosis) [µg/mL] | MIC (Saccharomyces cerevisiae) [µg/mL] | MIC (Aspergillus sp.) [µg/mL] | Activity (Candida albicans [2]) |
| --- | --- | --- | --- | --- | --- | --- | --- |
| O[C@H]1/C(=C/c2ccccc2)CCC[C@@H]1CN1CCOCC1 (relative stereo) | 200 (≈ 696 µM) | > 200 | 200 (≈ 696 µM) | > 200 | 200 (≈ 696 µM) | > 200 |  |
| O[C@H]1/C(=C/c2ccccc2)CCCCC[C@H]1CN1CCOCC1 (relative stereo) | 200 (≈ 634 µM) | 200 (≈ 634 µM) | 200 (≈ 634 µM) | 200 (≈ 634 µM) | 100 (≈ 317 µM) | > 200 | Active |
| COc1ccc(/C=C2\CCCC(CN3CCOCC3)C2=O)cc1 (centres undefined) | 25 (≈ 79.3 µM) | > 200 | 25 (≈ 79.3 µM) | 12.5 (≈ 39.6 µM) | 12.5 (≈ 39.6 µM) | > 200 |  |
| O=C1/C(=C/c2ccccc2)CCC1CN1CCOCC1 (centres undefined) | 3.12 (≈ 11.5 µM) | 6.25 (≈ 23 µM) | 3.12 (≈ 11.5 µM) | 3.12 (≈ 11.5 µM) | 0.8 (≈ 2.95 µM) | 50 (≈ 184 µM) |  |
| O[C@H]1/C(=C/c2ccccc2)CCC[C@H]1CN1CCOCC1 (relative stereo) | > 200 | > 200 | > 200 | > 200 | > 200 | > 200 |  |
| O=C1/C(=C/c2ccccc2)CCCC1CN1CCOCC1 (centres undefined) | 25 (≈ 87.6 µM) | > 200 | 25 (≈ 87.6 µM) | 12.5 (≈ 43.8 µM) | 3.12 (≈ 11 µM) | > 200 |  |
| O[C@H]1/C(=C/c2ccccc2)CCCC[C@H]1CN1CCCCC1 (relative stereo) | > 200 | 200 (≈ 668 µM) | 200 (≈ 668 µM) | > 200 | 50 (≈ 167 µM) | 200 (≈ 668 µM) |  |
| Cc1ccc(/C=C2\CCC(CN3CCOCC3)C2=O)cc1 (centres undefined) | 6.25 (≈ 21.9 µM) | 3.12 (≈ 11 µM) | 12.5 (≈ 43.8 µM) | 6.25 (≈ 21.9 µM) | 1.56 (≈ 5.47 µM) | 25 (≈ 87.6 µM) |  |

Second part, the compound after the results:

| MIC (Candida albicans [1]) [µg/mL] | MIC (Nakaseomyces glabratus) [µg/mL] | MIC (Pichia kudriavzevii) [µg/mL] | MIC (Candida parapsilosis) [µg/mL] | MIC (Saccharomyces cerevisiae) [µg/mL] | MIC (Aspergillus sp.) [µg/mL] | Activity (Candida albicans [2]) | SMILES |
| --- | --- | --- | --- | --- | --- | --- | --- |
| 25 (≈ 72.4 µM) | 100 (≈ 289 µM) | 50 (≈ 145 µM) | 50 (≈ 145 µM) | 25 (≈ 72.4 µM) | > 200 |  | COc1ccc(/C=C2\CCCC(CN3CCOCC3)C2=O)cc1OC (centres undefined) |
| 12.5 (≈ 41.7 µM) | 12.5 (≈ 41.7 µM) | 12.5 (≈ 41.7 µM) | 6.25 (≈ 20.9 µM) | 6.25 (≈ 20.9 µM) | 100 (≈ 334 µM) |  | COc1cccc(/C=C2\CCC(CN3CCCCC3)C2=O)c1 (centres undefined) |
| 12.5 (≈ 34.8 µM) | 100 (≈ 278 µM) | 12.5 (≈ 34.8 µM) | 50 (≈ 139 µM) | 25 (≈ 69.5 µM) | 100 (≈ 278 µM) |  | COc1cc(/C=C2\CCC(CN3CCCCC3)C2=O)cc(OC)c1OC (centres undefined) |
| 50 (≈ 167 µM) | 100 (≈ 334 µM) | 100 (≈ 334 µM) | 100 (≈ 334 µM) | 25 (≈ 83.5 µM) | > 200 |  | O[C@H]1/C(=C/c2ccccc2)CCCC[C@@H]1CN1CCCCC1 (relative stereo) |
| 25 (≈ 92.8 µM) | 25 (≈ 92.8 µM) | 25 (≈ 92.8 µM) | 12.5 (≈ 46.4 µM) | 12.5 (≈ 46.4 µM) | 100 (≈ 371 µM) |  | O=C1/C(=C/c2ccccc2)CCCC1CN1CCCC1 (centres undefined) |
| > 200 | > 200 | > 200 | > 200 | 100 (≈ 334 µM) | > 200 |  | CC1CCN(C[C@H]2CCC/C(=C\c3ccccc3)[C@@H]2O)CC1 (relative stereo) |
| 12.5 (≈ 42 µM) | 100 (≈ 336 µM) | 100 (≈ 336 µM) | 25 (≈ 84 µM) | 12.5 (≈ 42 µM) | 100 (≈ 336 µM) |  | CC1CCN(CC2CCC/C(=C\c3ccccc3)C2=O)CC1 (centres undefined) |
| > 200 | > 200 | > 200 | > 200 | > 200 | > 200 |  | O[C@H]1/C(=C/c2ccccc2)CCCC[C@H]1CN1CCOCC1 (relative stereo) |
| 100 (≈ 334 µM) | > 200 | 200 (≈ 668 µM) | 25 (≈ 83.5 µM) | 3.12 (≈ 10.4 µM) | > 200 |  | Cc1ccc(/C=C2\CCCC(CN3CCOCC3)C2=O)cc1 (centres undefined) |
| 100 (≈ 368 µM) | > 200 | 50 (≈ 184 µM) | > 200 | 50 (≈ 184 µM) | > 200 |  | O[C@@H]1/C(=C/c2ccccc2)CC[C@H]1CN1CCCCC1 (relative stereo) |
